According to patent US9271978B2 (Zenith Epigenetics Corp., priority 2012, dated 2016):

What was measured:
Design in all cases: key: Active: Compounds with an IC50 value less than 30 μM were deemed to be active.; Not Active: Compounds with an IC50 value less than 30 μM were deemed to be active
[1] = molecular target: T1, second bromodomain of Brd2 (BRD2(2)) (Homo sapiens, UniProt P25440); test: Inhibition of tetra-acetylated histone H4 binding to Brd2 bromodomain 2 (TR-FRET); details: tetra-acetylated histone H4 peptide, active = IC50 <30 μM
T1 construct: made in house; host or cells: E. coli BL21 (DE3)
In short: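 N-terminally His-tagged bromodomains (200 nM), expressed in E. coli, were incubated with biotinylated tetra-acetylated histone H4 peptide (25-50 nM), Eu-cryptate streptavidin and XL665 anti-His antibody in HEPES pH 7.4 buffer with KF, 0.2% DMSO, 2 h at room temperature. Inhibition read as decreased 665/620 nm TR-FRET; IC50 from dose-response curves.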

[2] = system: human AML MV-4-11 (CRL-9591) cells; test: Inhibition of cell proliferation in MV4-11 cells; format: cell-based; details: human AML MV-4-11 cells, 72 h; active = IC50 <30 μM
In short: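 Exponentially growing MV-4-11 cells (5×10^4/well) were treated immediately with two-fold dilutions of compound from 30 μM to 0.2 μM, in triplicate, for 72 h at 37° C, 5% CO2. Viability was measured by MTS absorbance at 490 nm after 3–4 h. Proliferation relative to DMSO after blank correction gave IC50.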

hMCP-1 mRNA = test: Inhibition of hMCP-1 mRNA transcription in human peripheral blood mononuclear cells; format: cell-based; details: 3 h
Protocol: In this example, hMCP-1 mRNA in human peripheral blood mononuclear cells was quantitated to measure the transcriptional inhibition of hMCP-1 when treated with a compound of the present disclosure.
Human Peripheral Blood Mononuclear Cells were plated (1.0×10^5 cells per well) in a 96-well plate in 45 μL RPMI-1640 containing 10% FBS and penicillin/streptomycin. The cells were treated with the test compound (45 μL at 2× concentration), and then the cells were incubated at 37° C. for 3 h before the cells were harvested. At time of harvest, cells were transferred to V-bottom plates and centrifuged (800 rpm, 5 min). Spent media was removed and cell lysis solution (70 μL) was added the cells in each well and incubated for 5-10 min at room temperature, to allow for complete cell lysis and detachment. mRNA was then prepared using the “mRNA Catcher PLUS plate” (Invitrogen), according to the protocol supplied. After the last wash, as much wash buffer as possible was aspirated without allowing the wells to dry. Elution buffer (E3, 70 μL) was then added to each well. mRNA was then eluted by incubating the mRNA Catcher PLUS plate with Elution Buffer for 5 min at 68° C. and then immediately placing the plate on ice.
(§1) The eluted mRNA isolated was then used in a one-step quantitative real-time PCR reaction, using components of the Ultra Sense Kit together with Applied Biosystems primer-probe mixes. Real-time PCR data was analyzed, normalizing the Ct values for hMCP-1 to an internal control, prior to determining the fold induction of each unknown sample, relative to the control.

hIL-17 mRNA = test: Inhibition of hIL-17 mRNA transcription in human peripheral blood mononuclear cells; format: cell-based; details: OKT3 antibody stimulation
Protocol: In this example, hIL-17 mRNA in human peripheral blood mononuclear cells was quantitated to measure the transcriptional inhibition of hIL-17 when treated with a compound of the invention.
Human peripheral blood mononuclear cells were plated (2.0×10^5 cells per well) in a 96-well plate in 45 μL OpTimizer T Cell expansion media containing 20 ng/ml IL-2 and penicillin/streptomycin. The cells were treated with the test compound (45 μL. at 2× concentration), and then the cells were incubated at 37° C. for 1 h before addition of 10× stock OKT3 antibody at 10 ug/ml in media. Cells were incubated at 37° C. for 3 h before the cells were harvested. At time of harvest, cells were centrifuged (800 rpm, 5 min). Spent media was removed and cell lysis solution (70 μL) was added the cells in each well and incubated for 5-10 min at room temperature, to allow for complete cell lysis and detachment. mRNA was then prepared using the “mRNA Catcher PLUS plate” (Invitrogen), according to the protocol supplied. After the last wash, as much wash buffer as possible was aspirated without allowing the wells to dry. Elution buffer (E3, 70 μL) was then added to each well. mRNA was then eluted by incubating the mRNA Catcher PLUS plate with Elution Buffer for 5 min at 68° C. and then immediately placing the plate on ice.
as §1, with “hIL-17” for “hMCP-1”

T1 sequence (P25440 344-453 limits assumed): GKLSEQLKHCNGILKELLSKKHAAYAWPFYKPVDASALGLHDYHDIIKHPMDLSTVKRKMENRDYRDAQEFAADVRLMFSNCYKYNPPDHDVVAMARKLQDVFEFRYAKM

| FRET activity (IC50 <30 μM) BRD2(2) [1] | Cell Proliferation activity (IC50 <30 μM) [2] | MCP-1 activity (IC50 < 30 μM) (hMCP-1 mRNA) | IL-17 activity (IC50 < 30 μM) (hIL-17 mRNA) | SMILES |
| --- | --- | --- | --- | --- |
| Active | Active | Active |  | Cc1noc(C)c1-c1ccc(=O)n(Cc2ccccc2)c1 [Example 56, 1-Benzyl-5-(3,5-dimethylisoxazol-4-yl)pyridin-2(1H)-one] |
| Active | Active | Active |  | Cc1noc(C)c1-c1cc(N)c(=O)n(Cc2ccccc2)c1 [Example 73, 3-Amino-1-benzyl-5-(3,5-dimethylisoxazol-4-yl)pyridin-2(1H)-one] |
| Active | Active | Active | Active | Cc1noc(C)c1-c1ccc(=O)n(Cc2ccc(Cl)cc2)c1 [Example 128, 1-(4-Chlorobenzyl)-5-(3,5-dimethylisoxazol-4-yl)pyridin-2(1H)-one] |
| Active | Active | Active |  | Cc1noc(C)c1-c1ccc(=O)n([C@H](C)c2ccccc2)c1 [Example 134, (R)-5-(3,5-Dimethylisoxazol-4-yl)-1-(1-phenylethyl)pyridin-2(1H)-one] |
|  | Active |  | Active | Cc1noc(C)c1-c1cc(N)c(=O)n(Cc2ccc(F)cc2)c1 [Example 180, 3-amino-5-(3,5-dimethylisoxazol-4-yl)-1-(4-fluorobenzyl)pyridin-2(1H)-one] |
|  | Active |  | Active | Cc1noc(C)c1-c1cc(N)c(=O)n(Cc2ccsc2)c1 [Example 219, 3-amino-5-(3,5-dimethylisoxazol-4-yl)-1-(thiophen-3-ylmethyl)pyridin-2(1H)-one] |
|  | Active |  | Active | Cc1noc(C)c1-c1cc(N)c(=O)n(Cc2ccc(Br)cc2)c1 [Example 241, 3-Amino-1-(4-bromobenzyl)-5-(3,5-dimethylisoxazol-4-yl)pyridin-2(1H)-one] |
